What all share (type): cell-based, Human
For assay [1], the system named is Jurkat cells. Kind of assay: Cell proliferation rate / viability of drug-treated Jurkat cells (trypan blue, hemocytometer). The conditions noted are these: for cell viability: 24-hour viability observation. The method, then: Human T lymphocytes, Jurkat (TIB-152, ATCC), were cultured and incubated at 37° C. under a humidified 5% CO2 atmosphere. The culture medium used was RPMI 1640 medium (52400, GIBCO) with 10% fetal bovine serum (FBS; 04-001-1A, Biological Industry) and 1% penicillin/streptomycin (15140, GIBCO). During experiments, cells were re-suspended in phenol red-free medium (11835-063, GIBCO) in the presence or absence of a drug, either methotrexate hydrate (MTX; […], SIGMA) or 2-deoxy-D-glucose (2DG; […], SIGMA), at a density of 1×10^6 cells/ml. Cell viability was estimated by using a hemocytometer to count trypan blue-stained cells. Relative cell count, presented in FIGS. 6B and 6E-6F, is a ratio of the cell count at t=24 hours to the initial cell count.

Assay [2] has as its system Jurkat cells. Kind of assay: 24-hour monitoring of extracellular ROS levels of drug-treated Jurkat cells using the nanowire biosensor. The conditions noted are these: t=6 hours, normalized by number of live cells. The method, then: For measurements of cellular metabolites/activity, cells were cultured in the chip, namely, in the culture compartment thereof (see, for example, FIG. 1A), while placing the chip in an incubator during measurements. A sample was introduced to the sensing compartment at 20 μl min^-1 by using a syringe pump. Human T lymphocytes, Jurkat (TIB-152, ATCC), were cultured and incubated at 37° C. under a humidified 5% CO2 atmosphere. The culture medium used was RPMI 1640 medium (52400, GIBCO) with 10% fetal bovine serum (FBS; 04-001-1A, Biological Industry) and 1% penicillin/streptomycin (15140, GIBCO). During experiments, cells were re-suspended in phenol red-free medium (11835-063, GIBCO) in the presence or absence of a drug, either methotrexate hydrate (MTX; […], SIGMA) or 2-deoxy-D-glucose (2DG; […], SIGMA), at a density of 1×10^6 cells/ml. Cellular samples were dispensed into the wells of the sensing chip (see FIGS. 1A and 1B) in an incubator. 24-hour monitoring of metabolic activity of drug-treated Jurkat cells by measuring extracellular ROS levels using the nanowire biosensor, was performed and the obtained data is presented in FIGS. 6A-G. Measured ROS levels were normalized by the number of live cells.

The subject of assay [3] is Jurkat cells. The assay can be described thus: Extracellular lactate level of 2DG-treated Jurkat cells (lactate oxidase, nanowire biosensor). The conditions noted are these: after 24 hours. The method, then: For lactate sensing, 0.1 unit/ml of lactate oxidase (LOX; L0638, SIGMA) was added in phenol red-free medium to convert lactate to pyruvate and H2O2 before lactate reaches the FET array (as depicted in FIG. 1D).
During experiments, cells were re-suspended in phenol red-free medium (11835-063, GIBCO) in the presence or absence of a drug, either methotrexate hydrate (MTX; M8407, SIGMA) or 2-deoxy-D-glucose (2DG; D6134, SIGMA), at a density of 1×10^6 cells/ml.
The correlation between extracellular lactate level of 2DG-treated Jurkat cells and a resultant cell proliferation rate after 24 hours was investigated.

In assay [4] the test system is Jurkat cells. Kind of assay: pH sensing of drug-treated Jurkat cells (reductant-added medium, nanowire FET). The conditions noted are these: 24-hour monitoring, culture medium. The source says: A conversion of the modified FET into a pH sensor was achieved by using a reductant-added solution. After supplementing a culture medium with 0.1% v/v DEHA to reduce the modified FET surface, surface proton density varied by protonation or by deprotonation dominantly changes the measured current.
For pH sensing, 0.1% v/v DEHA was supplemented in the sensing medium to reduce the 9,10-anthraquinone monolayer on the FET surface to obtain 9,10-dihydroxyanthracene (see also FIG. 1d) and H2O2 simultaneously. Therefore, no significant amount of H2O2 in a DEHA-supplemented medium altered a measured signal. As a result, surface proton density, varied by protonation or by deprotonation, dominantly changes an acquired signal.

As for `O=CC[C@@H](O)[C@H](O)[C@H](O)CO` [2DG, 2-deoxy-D-glucose], the cell viability result in assay [1] is “anti-proliferative activity”. Further, the cell proliferation rate result in assay [1] (after 24 hours, relative cell count = count at t=24 hours / initial count) is “reduced”. In assay [2], the ROS level result is “noticeable decrease”. The cellular lactate secretion result in assay [3] is “decreased”. For the same compound, the “pH of treated cells versus control” value in assay [4] was “more basic than the control”.
In the case of `CN(Cc1cnc2nc(N)nc(N)c2n1)c1ccc(C(=O)N[C@@H](CCC(=O)O)C(=O)O)cc1` [MTX, methotrexate hydrate], the cell viability entry in assay [1] is recorded as “anti-proliferative activity”. For the same compound, the ROS level entry in assay [2] is “noticeable decrease”.

The values are drawn from patent US11275078B2, “Method and system for sensing” (Ramot at Tel-Aviv University Ltd., priority 2015, dated 2022).
